From ChEMBL document CHEMBL6071200, “Discovery of Ring-Annulated Analogues of Cannabidiol as Potential Anticancer Agents: Synthesis and Biological Evaluation” (ACS Med Chem Lett, 2024)
The source made the active and inactive calls. The rule behind the calls is not given here.

How the values were obtained:
[1] = test system: Caco-2; assay: Anticancer activity against human Caco-2 cells; assay type: functional, cell-based
[2] = Anticancer activity against mouse Thymocyte; assay type: toxicity, cell-based; conditions: thymocytes
[3] = test system: SF-126; assay: Anticancer activity against human SF-126 cells; assay type: functional, cell-based
[4] = test system: MCF7; assay: Induction of apoptosis in human MCF7 cells assessed as necrotic cells at 14.65 uM incubated for 24 hrs by Annexin V-FITC/PI staining based flow cytometric analysis (reference value: 4.02 %); assay type: functional
[5] = test system: T47D; assay: Anticancer activity against human T47D cells; assay type: functional, cell-based
[6] = test system: MCF7; assay: Induction of apoptosis in human MCF7 cells assessed as early apoptotic cells at 14.65 uM incubated for 24 hrs by Annexin V-FITC/PI staining based flow cytometric analysis (reference value: 2.93 %); assay type: functional
[7] = test system: T98; assay: Anticancer activity against human T98 cells; assay type: functional, cell-based
[8] = test system: MCF7; assay: Cell cycle arrest in human MCF7 cells assessed as accumulation of cells at S phase at 14.65 uM incubated for 24 hrs by PI staining based flow cytometric analysis (reference value: 22.93 %); assay type: functional
[9] = test system: MCF7; assay: Anticancer activity against human MCF7 cells assessed as reduction in cell viability at 14.65 uM incubated for 48 hrs by SRB assay relative to control; assay type: functional
[10] = test system: MCF7; assay: Anticancer activity against human MCF7 cells assessed as reduction in cell viability at 14.65 uM preincubated with capsazepine for 1 hrs followed by compound addition and measured after 48 hrs by SRB assay; assay type: functional, cell-based
[11] = test system: MCF7; assay: Anticancer activity against human MCF7 cells assessed as reduction in cell viability at 14.65 uM preincubated with GW9662 for 1 hrs followed by compound addition and measured after 48 hrs by SRB assay; assay type: functional, cell-based
[12] = test system: HL-60; assay: Anticancer activity against human HL-60 cells; assay type: functional, cell-based
[13] = test system: RBL-2H3; assay: Anticancer activity against rat RBL-2H3 cells; assay type: functional, cell-based
[14] = test system: MCF7; assay: Cell cycle arrest in human MCF7 cells assessed as accumulation of cells at G2/M phase at 14.65 uM incubated for 24 hrs by PI staining based flow cytometric analysis (reference value: 13.7 %); assay type: functional
[15] = test system: HCT-116; assay: Cytotoxicity against human HCT-116 cells assessed as inhibition of cell growth at 20 uM incubated for 48 hrs by SRB assay relative to control; assay type: functional
[16] = test system: CCRF-CEM; assay: Anticancer activity against human CEM cells; assay type: functional, cell-based
[17] = test system: MCF7; assay: Cytotoxicity against human MCF7 cells assessed as inhibition of cell growth incubated for 48 hrs by SRB assay; assay type: functional, cell-based; conditions: MCF7, 48 h
[18] = test system: C6; assay: Anticancer activity against rat C6 cells; assay type: functional, cell-based
[19] = test system: LNCaP; assay: Anticancer activity against human LNCaP cells; assay type: functional, cell-based
[20] = Cytotoxicity against human HEK293 cells assessed as inhibition of cell growth incubated for 48 hrs by SRB assay; assay type: toxicity, cell-based
[21] = test system: MCF7; assay: Anticancer activity against human MCF7 cells assessed as reduction in cell viability at 14.65 uM preincubated with LY320135 for 1 hrs followed by compound addition and measured after 48 hrs by SRB assay; assay type: functional, cell-based
[22] = test system: SW480; assay: Anticancer activity against human SW480 cells; assay type: functional, cell-based
[23] = test system: MCF7; assay: Induction of apoptosis in human MCF7 cells assessed as viable cells at 14.65 uM incubated for 24 hrs by Annexin V-FITC/PI staining based flow cytometric analysis (reference value: 88.20 %); assay type: functional; conditions: read-out: Activity
[24] = test system: AGS; assay: Anticancer activity against human AGS cells; assay type: functional, cell-based
[25] = molecular target: CYP450 (Homo sapiens, UniProt P04798+P05177+P05181+P08684+P10632+P10635+P11509+P11712+P13584+P20813+P20815+P20853+P24462+P24903+P33260+P33261+P51589+P78329+P98187+Q02928+Q08477+Q16678+Q16696+Q5TCH4+Q6VVX0+Q7Z449+Q8TAV3+Q96SQ9+Q9HB55); assay: Inhibition of CYP450 in human liver microsomes at <1 uM by cocktail-mixture based assay relative to control; assay type: ADME, Microsome; parameters: dose or concentration left out as unconfirmed; conditions: probe cocktail mixture
[26] = test system: MCF7; assay: Anticancer activity against human MCF7 cells; assay type: functional, cell-based
[27] = test system: MCF7; assay: Induction of mitochondrial membrane loss in human MCF7 cells assessed as fold change at 14.6 uM incubated for 24 hrs by Mitotracker dye based flow cytometric analysis relative to control; assay type: functional
[28] = test system: MDA-MB-231; assay: Anticancer activity against human MDA-MB-231 cells; assay type: functional, cell-based
[29] = test system: MCF7; assay: Cell cycle arrest in human MCF7 cells assessed as accumulation of cells at G1 phase at 14.65 uM incubated for 24 hrs by PI staining based flow cytometric analysis (reference value: 63.9 %); assay type: functional
[30] = Selectivity index, ratio of IC50 for HEK293 cells to IC50 for human MCF7 cells; assay type: toxicity; conditions: HEK293 cells versus MCF7 cells, read-out: Ratio IC50
[31] = Metabolic stability in human liver microsomes assessed as parent compound remaining measured after 30 mins; assay type: ADME, Microsome; conditions: read-out: Stability
[32] = test system: MCF7; assay: Anticancer activity against human MCF7 cells assessed as reduction in cell viability at 14.65 uM preincubated with ML-193 for 1 hrs followed by compound addition and measured after 48 hrs by SRB assay; assay type: functional, cell-based
[33] = test system: MCF7; assay: Induction of apoptosis in human MCF7 cells assessed as late apoptotic cells at 14.65 uM incubated for 24 hrs by Annexin V-FITC/PI staining based flow cytometric analysis (reference value: 4.85 %); assay type: functional
[34] = test system: MCF7; assay: Cytotoxicity against human MCF7 cells assessed as inhibition of cell growth at 20 uM incubated for 48 hrs by SRB assay relative to control; assay type: functional
[35] = test system: MCF7; assay: Anticancer activity against human MCF7 cells assessed as reduction in cell viability at 14.65 uM preincubated with SR144528 for 1 hrs followed by compound addition and measured after 48 hrs by SRB assay; assay type: functional, cell-based
[36] = test system: MCF7; assay: Inhibition of colony formation in human MCF7 cells assessed as reduction in number of colonies at subtoxic doses measured after 48 hrs by crystal violet staining based analysis; assay type: functional, cell-based
[37] = Selectivity index, ratio of IC50 for HEK293 cells to IC50 for human HCT-116 cells; assay type: toxicity; conditions: HEK293 cells versus HCT-116 cells, read-out: Ratio IC50
[38] = Anticancer activity against mouse GL261 cells; assay type: functional, cell-based
[39] = test system: DU-145; assay: Anticancer activity against human DU-145 cells; assay type: functional, cell-based
[40] = Anticancer activity against KiMol cells (unknown origin); assay type: functional, cell-based; conditions: KiMol cell
[41] = test system: HCT-116; assay: Cytotoxicity against human HCT-116 cells assessed as inhibition of cell growth incubated for 48 hrs by SRB assay; assay type: functional, cell-based; conditions: HCT-116, 48 h
[42] = Anticancer activity against human MZC cells; assay type: functional, cell-based
[43] = test system: NCI-H460; assay: Anticancer activity against human NCI-H460 cells; assay type: functional, cell-based
[44] = test system: A549; assay: Anticancer activity against human A549 cells; assay type: functional, cell-based
[45] = test system: EL4; assay: Anticancer activity against mouse EL4 cells; assay type: functional, cell-based
[46] = test system: MCF7; assay: Induction of ROS production in human MCF7 cells assessed as DCFDA intensity at 14.6 uM incubated for 24 hrs by flow cytometric analysis (reference value: 0.95 %); assay type: functional

SMILES: C=C(C)[C@@H]1CCC(C)=C[C@H]1c1c(O)cc(CCCCC)cc1O [CANNABIDIOL]
- IC50 [1]: 5.95 µM
- IC50 [2]: 7.01 µM
- IC50 [3]: 1.2 µM
- Activity [4]: 2.38%
- IC50 [5]: 1.3 µM
- Activity [6]: 6.33%
- IC50 [7]: 1.2 µM
- Activity [8]: 6.84%
- Activity [9]: 52.46%
- Activity [10]: Active
- Activity [11]: Active
- IC50 [12]: 6.3 µM
- IC50 [13]: 6.3 µM
- Activity [14]: 18.04%
- inhibition at 20 µM [15]: 77.3%
- IC50 [16]: 6.3 µM
- IC50 [17]: 14.6 µM
- IC50 [18]: 1.2 µM
- IC50 [19]: 5.06 µM
- IC50 at 48 h [20]: 95.2 µM
- Activity [21]: Active
- IC50 [22]: 5.95 µM
- viability at 14.65 µM [23]: 81.1%
- IC50 [24]: 7.5 µM
- inhibition [25]: > 50%
- IC50 [26]: 1.3 µM
- fold change (FC) [27]: 3.4
- IC50 [28]: 1.3 µM
- Activity [29]: 75.12%
- selectivity ratio [30]: 6.5
- remaining at 0.5 h [31]: 17%
- Activity [32]: Active
- Activity [33]: 10.14%
- inhibition at 20 µM [34]: 59.1%
- Activity [35]: Active
- inhibition [36]: Active
- selectivity ratio [37]: 9.7
- IC50 [38]: 1.2 µM
- IC50 [39]: 5.06 µM
- IC50 [40]: 6 µM
- IC50 [41]: 9.8 µM
- IC50 [42]: 1.2 µM
- IC50 [43]: 2.8 µM
- IC50 [44]: 2.8 µM
- IC50 [45]: 7.01 µM
- Activity [46]: 15.11%
